Test results published in article PMC5809530, “Resculpting the binding pocket of APC superfamily LeuT-fold amino acid transporters” (Cellular and Molecular Life Sciences: CMLS, 2017).

How the values were obtained:
Assay type in all cases: cell-based
SNAT5 (SLC38A5) [1] = molecular target: T1, SNAT5 (SLC38A5) (Homo sapiens, UniProt Q8WUX1); assay: competition with radiolabelled serine uptake in Xenopus oocytes; conditions: 50 μM serine, 0-10 mM asparagine; pH 8.5, Na+
T1 construct: full length in pSPORT1, expressed in Xenopus laevis oocytes

SNAT5 (SLC38A5) [2] = molecular target: T2, SNAT5 (SLC38A5) (Homo sapiens, UniProt Q8WUX1, A138I); assay: radiolabelled alanine uptake and competition with serine uptake in Xenopus oocytes; conditions: 50 μM substrate, 0-10 mM competitor; pH 8.5, Na+
T2 construct: full length in pSPORT1, expressed in Xenopus laevis oocytes

SNAT5 (SLC38A5) [3] = molecular target: T3, SNAT5 (SLC38A5) (Homo sapiens, UniProt Q8WUX1, A138T); assay: as above; conditions: 50 μM substrate, 0-10 mM competitor; pH 8.5, Na+
T3 construct: full length in pSPORT1, expressed in Xenopus laevis oocytes

SNAT5 (SLC38A5) [4] = molecular target: T1, SNAT5 (SLC38A5); assay: radiolabelled serine uptake and self-competition in Xenopus oocytes; conditions: 50 μM serine; pH 8.5, Na+
PAT2 (SLC36A2) [5] = molecular target: PAT2 (SLC36A2) (Rattus norvegicus, UniProt Q8K415); assay: competition with radiolabelled proline uptake in Xenopus oocytes; parameters: full length in pSPORT1, expressed in Xenopus laevis oocytes; conditions: 10 μM proline, 10 mM glycine; Na+-free, pH 5.5
PAT2 (SLC36A2) [6] = molecular target: T4, PAT2 (SLC36A2) (Rattus norvegicus, UniProt Q8K415, F159I); assay: competition with radiolabelled proline uptake and direct uptake in Xenopus oocytes; conditions: 10 μM proline, 0-20 mM α-ABA; Na+-free, pH 5.5
T4 construct: full length in pSPORT1, expressed in Xenopus laevis oocytes
T4 sequence (Q8K415 whole entry F159I): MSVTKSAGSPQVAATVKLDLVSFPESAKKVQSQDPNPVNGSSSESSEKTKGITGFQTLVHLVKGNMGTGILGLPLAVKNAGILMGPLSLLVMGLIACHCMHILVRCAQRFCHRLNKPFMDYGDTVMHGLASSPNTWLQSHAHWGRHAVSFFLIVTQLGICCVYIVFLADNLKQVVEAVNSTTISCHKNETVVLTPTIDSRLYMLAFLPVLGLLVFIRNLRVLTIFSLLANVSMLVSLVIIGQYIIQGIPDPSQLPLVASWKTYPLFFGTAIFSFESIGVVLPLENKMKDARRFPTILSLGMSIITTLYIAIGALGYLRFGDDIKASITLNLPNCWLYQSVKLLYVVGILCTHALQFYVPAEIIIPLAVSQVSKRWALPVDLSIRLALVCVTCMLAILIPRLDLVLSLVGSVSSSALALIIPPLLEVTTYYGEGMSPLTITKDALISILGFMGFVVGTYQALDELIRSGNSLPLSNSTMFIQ

T1 sequence (Q8WUX1 whole entry): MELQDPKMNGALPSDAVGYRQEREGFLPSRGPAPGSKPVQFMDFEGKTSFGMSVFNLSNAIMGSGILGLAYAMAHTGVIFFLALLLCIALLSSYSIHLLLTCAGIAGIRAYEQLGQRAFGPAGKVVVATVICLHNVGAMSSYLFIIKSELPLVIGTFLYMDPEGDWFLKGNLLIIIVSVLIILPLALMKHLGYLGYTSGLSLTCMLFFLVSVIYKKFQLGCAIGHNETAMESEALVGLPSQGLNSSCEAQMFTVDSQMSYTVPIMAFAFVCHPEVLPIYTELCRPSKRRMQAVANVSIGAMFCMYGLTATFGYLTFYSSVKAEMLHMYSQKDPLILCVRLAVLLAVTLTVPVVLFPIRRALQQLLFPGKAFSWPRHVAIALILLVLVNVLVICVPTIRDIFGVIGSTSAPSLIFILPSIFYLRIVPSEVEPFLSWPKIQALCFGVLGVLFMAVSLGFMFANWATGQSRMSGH
T3 sequence (Q8WUX1 whole entry A138T): as the sequence (Q8WUX1 whole entry) above, with A138T counted along it
T2 sequence (Q8WUX1 whole entry A138I): as the sequence (Q8WUX1 whole entry) above, with A138I counted along it
Sequence of PAT2 (SLC36A2) (Rattus norvegicus, UniProt Q8K415) (Q8K415 whole entry): as the sequence (Q8K415 whole entry F159I) above, with I159F counted along it

NC(=O)C[C@H](N)C(=O)O [asparagine]
competition with radiolabelled serine uptake in Xenopus oocytes (SNAT5 (SLC38A5) [1]): measured in the presence of e unlabelled serine, f asparagine, or g alanine

C[C@H](N)C(=O)O [alanine]
radiolabelled alanine uptake and competition with serine uptake in Xenopus oocyt (SNAT5 (SLC38A5) [2]): A138T and A138I mutants gain function and become excellent alanine transporters | radiolabelled alanine uptake and competition with serine uptake in Xenopus oocyt (SNAT5 (SLC38A5) [3]): A138T and A138I mutants gain function and become excellent alanine transporters

N[C@@H](CO)C(=O)O [serine]
radiolabelled serine uptake and self-competition in Xenopus oocytes (SNAT5 (SLC38A5) [4]): Serine is transported well by SNAT5, whereas alanine is transported poorly

NCC(=O)O [glycine]
competition with radiolabelled proline uptake in Xenopus oocytes (PAT2 (SLC36A2) [5]): Glycine and alanine interact with all five carriers

CC[C@H](N)C(=O)O [α-ABA]
competition with radiolabelled proline uptake and direct uptake in Xenopus oocyt (PAT2 (SLC36A2) [6]): PAT2-F159I not only binds Ser and α-ABA but efficiently translocates these amino acids
